Measured values as given in patent publication US6548492B1, “Process for formulation of carbapenem antibiotic compositions” (Merck & Co., Inc., priority 1999, dated 2003).

Tests used:
[1] = Stability and hygroscopicity of the bulk monosodium salt carbapenem on storage; format: physicochemical
Protocol: and a process for the preparation thereof.
During the manufacture of bulk compound products such as beta-lactam and carbapenem antibiotics, the pharmaceutical compound is prepared by chemical synthesis from raw materials in large quantities. As with many carbapenem compounds, the compound in accordance with formula I is prepared in large batches as a monosodium salt. The compound is a weakly crystalline solid, hygroscopic at ambient conditions, and is unstable at room and refrigerated temperatures. Therefore, the bulk compound must be stored at a temperature of about −20° C. to prevent degradation into dimer and open ring by-products.

[2] = cited from earlier work

hygroscopicity ([1]; ambient conditions, weakly crystalline solid): hygroscopic
stability at room and refrigerated temperatures ([1]; bulk monosodium salt): unstable
SMILES: CC(O)C1C(=O)N2C(C(=O)[O-])=C(SC3CNC(C(=O)Nc4cccc(C(=O)O)c4)C3)C(C)C12.[Na+] (stereo not shown) [formula I]
stability at ambient conditions ([2]; 20° C. and 1 atmosphere, monosodium salt): relatively unstable
stability at temperatures above about −20° C. ([2]; undergoes dimerization and hydrolysis to dimers and open ring by-products): remains unstable
